Patent publication US9809532B2, “Uses of histone acetyltransferase activators” (THE TRUSTEES OF COLUMBIA UNIVERSITY IN THE CITY OF NEW YORK, priority 2011, dated 2017)
Where “and” joins values, the source holds several entries; their conditions need not be identical. Identical values can stand only once.

Tests used:
[1] = Kinetics in blood sampled from tails; format: in vivo, mice; conditions: 20 mg/kg i.p.
BDNF = BDNF levels in hippocampi of Aβ-infused mice; format: in vivo; conditions: for hippocampal BDNF levels after Aβ infusion: 20 mg/kg, i.p., 90 min before harvesting, Aβ-infused mice
Text: 3(1): p. 12-29; Caccamo, A., et al., CBP gene transfer increases BDNF levels and ameliorates learning and memory deficits in a mouse model of Alzheimer's disease. Proc Natl Acad Sci USA, 2010. 107(52): p. 22687-92; each herein incorporated by reference in its entirety). […] The Journal of Neuroscience: The Official Journal of the Society for Neuroscience, 2007. 27(10): p. 2628-35; each herein incorporated by reference in its entirety). Thus, preliminary studies on Compound 1 efficacy were extended to BDNF. BDNF levels in the hippocampi of Aβ-infused mice were measured compared to vehicle infused animals. Consistent with the decrease in BDNF levels in brains of AD patients and animal models of AD, a reduction of BDNF levels following Aβ infusion was found (FIG. 23).

HDAC3/NCOR2 = HDAC3/NCOR2 (Homo sapiens, UniProt O15379); assay: HDAC3/NCOR2 activity assay (fluorescence); conditions: Repeat1/Repeat2
Sirtuin 2 = target: T1, Sirtuin 2 (Homo sapiens, UniProt Q8IXJ6); assay: Sirtuin 2 activity assay (fluorescence); conditions: Compound 1 Log [nM] 4.0; Repeat1/Repeat2
T1 sequence (Q8IXJ6 1-389): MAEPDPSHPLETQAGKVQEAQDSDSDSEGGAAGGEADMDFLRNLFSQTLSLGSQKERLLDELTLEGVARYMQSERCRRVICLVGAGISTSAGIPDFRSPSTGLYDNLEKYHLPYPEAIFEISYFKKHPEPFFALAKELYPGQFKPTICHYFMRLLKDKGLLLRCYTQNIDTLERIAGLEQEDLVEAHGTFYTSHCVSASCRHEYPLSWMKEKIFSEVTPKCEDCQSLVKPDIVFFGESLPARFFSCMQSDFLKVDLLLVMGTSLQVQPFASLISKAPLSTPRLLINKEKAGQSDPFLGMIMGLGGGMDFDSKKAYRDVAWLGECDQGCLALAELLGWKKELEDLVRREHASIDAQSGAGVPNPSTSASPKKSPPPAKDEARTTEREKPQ

HDAC10 = target: T2, HDAC10 (Homo sapiens, UniProt Q969S8); assay: HDAC10 activity assay (fluorescence); conditions: Compound 1 Log [nM] 4.5; Repeat1/Repeat2
T2 sequence (Q969S8 1-669): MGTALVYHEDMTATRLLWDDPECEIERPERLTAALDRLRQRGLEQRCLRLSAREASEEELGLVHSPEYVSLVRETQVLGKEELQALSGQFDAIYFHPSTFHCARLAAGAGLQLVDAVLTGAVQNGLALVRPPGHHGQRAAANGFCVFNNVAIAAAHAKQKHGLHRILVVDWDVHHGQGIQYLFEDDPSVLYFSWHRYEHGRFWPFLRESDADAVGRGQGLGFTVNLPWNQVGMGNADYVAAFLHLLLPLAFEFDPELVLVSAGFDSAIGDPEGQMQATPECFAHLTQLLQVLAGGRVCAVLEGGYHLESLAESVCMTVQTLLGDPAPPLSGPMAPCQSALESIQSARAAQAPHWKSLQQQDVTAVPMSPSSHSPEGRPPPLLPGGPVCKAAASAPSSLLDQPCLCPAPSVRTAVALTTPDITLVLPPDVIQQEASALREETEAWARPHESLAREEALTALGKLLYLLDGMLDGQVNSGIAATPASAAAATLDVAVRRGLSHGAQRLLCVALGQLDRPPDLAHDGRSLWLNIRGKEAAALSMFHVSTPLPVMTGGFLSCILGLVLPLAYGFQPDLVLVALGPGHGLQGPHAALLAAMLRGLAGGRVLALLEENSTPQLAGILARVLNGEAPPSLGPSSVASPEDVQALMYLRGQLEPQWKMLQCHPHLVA

mice = assay: Sensory threshold assessment; format: in vivo; conditions: vs vehicle, 5 mg/kg (FIG. 19)
Description: To evaluate contextual fear learning, freezing was measured for 5 min (consecutively) in the chamber in which the mice was trained 24 hr after training. To evaluate cued fear learning, following contextual testing, the mice were placed in a novel context (triangular cage with smooth flat floor) for 2 min (pre-CS test), after which they were exposed to the CS for 3 min (CS test), and freezing was measured. Sensory perception of the shock was determined through threshold assessment. A sequence of single foot shocks was delivered to animals placed on the same electrified grid used for fear conditioning. Initially, a […] shock was delivered for 1 sec, and the animal behavior was evaluated for flinching, jumping, and vocalization. At 30 sec intervals the shock intensity was increased by […] and then returned to 0 mV in […] increments at 30 sec intervals. Threshold to vocalization, flinching, and then jumping was quantified for each animal by averaging the shock intensity at which each animal manifests a behavioral response to the foot shock.

[2] = system: ACH3 (acetylated histone H3); assay: Western blotting for ACH3 in hippocampus after administration; format: in vivo, mice
Description: Two and four hrs after its administration, the mice were sacrificed and hippocampi were extracted. […] Purity was verified through Nuclear Magnetic Resonance (NMR) spectroscopy. […] Hippocampus extraction was made at 3 different time points (0.5, 1 and 2 hrs post treatment). A western blotting for ACH3 was then performed.

Sequence of HDAC3/NCOR2 (O15379 whole entry): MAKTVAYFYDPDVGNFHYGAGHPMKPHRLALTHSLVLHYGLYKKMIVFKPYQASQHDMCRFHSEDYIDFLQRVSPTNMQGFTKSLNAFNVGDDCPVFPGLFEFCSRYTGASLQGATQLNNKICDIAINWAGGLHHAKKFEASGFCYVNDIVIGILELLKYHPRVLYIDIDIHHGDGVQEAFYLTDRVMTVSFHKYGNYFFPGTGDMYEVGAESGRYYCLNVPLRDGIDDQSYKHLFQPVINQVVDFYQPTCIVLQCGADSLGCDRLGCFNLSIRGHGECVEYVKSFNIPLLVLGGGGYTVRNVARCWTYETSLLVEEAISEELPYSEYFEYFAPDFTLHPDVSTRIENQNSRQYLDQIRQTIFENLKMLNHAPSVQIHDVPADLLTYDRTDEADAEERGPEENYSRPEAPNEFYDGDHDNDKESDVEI
Sequence of HDAC3/NCOR2 (Q9Y618 395-489 partner limits assumed): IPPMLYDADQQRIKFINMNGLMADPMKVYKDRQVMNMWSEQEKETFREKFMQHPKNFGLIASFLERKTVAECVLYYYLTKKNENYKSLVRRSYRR

CCOc1cccc(OCCN(C)C)c1C(=O)Nc1ccc(Cl)c(C(F)(F)F)c1 [Compound 1]
time of peak in blood post-injection [1]: around 30 minutes
hippocampal BDNF levels after Aβ infusion (BDNF): rescued
hippocampal BDNF levels after Aβ infusion (BDNF; listed as YF2): rescued Aβ-induced decrease in hippocampal BDNF levels
hippocampal BDNF levels (BDNF; vehicle-infused mice): increased BDNF levels
% Activity (HDAC3/NCOR2) (HDAC3/NCOR2; Compound 1 Log [nM] 0.5): 102.35% and 89.76%
% Activity (HDAC3/NCOR2) (HDAC3/NCOR2; Compound 1 Log [nM] 1.0): 98.01% and 97.56%
% Activity (HDAC3/NCOR2) (HDAC3/NCOR2; Compound 1 Log [nM] 1.5): 101.44% and 96.12%
% Activity (HDAC3/NCOR2) (HDAC3/NCOR2; Compound 1 Log [nM] 2.0): 102.25% and 94.61%
% Activity (HDAC3/NCOR2) (HDAC3/NCOR2; Compound 1 Log [nM] 2.5): 101.07% and 95.51%
% Activity (HDAC3/NCOR2) (HDAC3/NCOR2; Compound 1 Log [nM] 3.0): 99.62% and 94.38%
% Activity (HDAC3/NCOR2) (HDAC3/NCOR2; Compound 1 Log [nM] 3.5): 97.14% and 94.27%
% Activity (HDAC3/NCOR2) (HDAC3/NCOR2; Compound 1 Log [nM] 4.0): 108.31% and 94.90%
% Activity (HDAC3/NCOR2) (HDAC3/NCOR2; Compound 1 Log [nM] 4.5): 87.66% and 88.97%
% Activity (HDAC3/NCOR2) (HDAC3/NCOR2; Compound 1 Log [nM] 5.3): 89.40% and 102.23%
% Activity (Sirtuin 2) (Sirtuin 2): 97.71%
% Activity (HDAC10) (HDAC10): 102.89%
sensory threshold (mice): no difference was observed
ACH3 in hippocampus ([2]; 50 mg/kg i.p., 2 and 4 hrs, FIG. 1): increase ACH3
ACH3 levels in hippocampus ([2]; 5, 10, 20 mg/Kg i.p. in saline, 0.5, 1, 2 hrs, except 1 hr-10 mg/kg, FIG. 2): dramatically increased ACH3 levels
